Experimental data reported in patent EP4578855A1, “PROLYL HYDROXYLASE INHIBITOR AND USE THEREOF” (Suzhong Pharmaceutical Group Co., Ltd., priority 2022, dated 2024).

Columns and labels:
[1] = tested on: human hepatocarcinoma cell line Hep3B; assay: In-vitro erythropoietin (EPO)-inducing activity experiment (EPO ELISA, OD450); assay type: cell-based; conditions: Homo sapiens, Hep3B, 24 h, Hep3B cells, incubated 24 hours at 37°C
Procedure: In-vitro erythropoietin (EPO)-inducing activities of the compounds in Embodiments 10 to 12 were evaluated by using a human hepatocarcinoma cell line Hep3B (ATCC). Hep3B cells were cultured in an EMEM medium (Eagle's Minimum Essential Medium) at 37°C in the presence of 10% fetal bovine serum (FBS). Experimental steps were as follows: • (1) Cell preparation: the cells were inoculated in a 96-well plate, and cell plating was carried out according to an amount of 100 µL per well based on 2*10~4 per well. • (2) Preparation of compound concentration gradient: 100 µM, 20 µM, 2-parallel well detection. A solution with 200 times final concentration was prepared in a 96-well plate, the compound was diluted 200/3 times by using a cell culture medium, and then 50 µL of the compound was sucked for drug administration to the cells. 50 µL of DMSO-containing culture solution was added into a negative control well to make a final concentration contain 5 ‰ DMSO, and 50 µL of positive compound with the highest concentration was added into a positive control well to incubate the cells at 37°C for 24 hours. • (3) The reaction plate was washed twice with 1X Wash Buffer according to about 400 µL per well. • (4) 100 µL of diluted standard (comprising a standard blank control) was added into an appropriate well. • (5) 50 µL of sample and 50 µL of Sample Diluent were added into a sample well. • (6) 50 µL of 1X Biotin Conjugated Antibody were added into all wells to incubate the cells at room temperature for 1 hour. • (7) The reaction plate was washed with 1X Wash Buffer for 6 times according to about 400 µL per well. • (8) 100 µL of 1X Streptavidin-HRP was added in to each well to incubate the cells at room temperature for 15 minutes. • (9) The reaction plate was washed with 1X Wash Buffer for 6 times according to about 400 µL per well. • (10) 100 µL of TMB Substrate Solution was added into each well to incubate the cells at room temperature for 10 minutes. • (11) 100 µL of Stop Solution was added into each well. • (12) OD450 was read by EnSight.
The EPO-inducing activities of the compounds were expressed as the concentration for 50% of maximal effect (EC50).

[2] = Pharmacokinetic evaluation after intravenous injection or intragastric administration, plasma LC-MS/MS; assay type: in vivo, SD rats
From the text: After the compounds were given to SD rats by intravenous injection or intragastric administration, concentrations of related compounds in plasma were detected by an LC-MS/MS method, and pharmacokinetics and absolute bioavailability of the compounds prepared in Embodiments 13 and 14 in the rats were preliminarily evaluated.
2. Line: Sprague Dawley rats, sex: male, weight: 200 g to 250 g
Pharmacokinetic characteristics of rodents after intravenous injection and oral administration of the compounds were tested by a standard scheme. In the experiment, a candidate compound was prepared into a clear solution, and given to the rats by single intravenous injection and intragastric administration. A solvent for intravenous injection was a certain proportion of N,N-dimethylacetamide (DMA) and 10% Solutol HS15 solution, and a solvent for oral administration was a certain proportion of sodium carboxymethyl cellulose (CMC) suspension. 5 minutes, 15 minutes, 30 minutes, 1 hour, 2 hours, 4 hours, 6 hours, 8 hours, 10 hours and 24 hours after drug administration, blood samples of the animals were respectively collected into K2EDTA anticoagulation tubes, which were temporarily stored on ice until centrifugation.

[3] = Subacute toxicity test, 14 consecutive days; assay type: in vivo; conditions: SD rats, 10 mg/kg once a day for 14 consecutive days, in words
From the text: A proper amount of the compound in Embodiment 13 and a proper amount of the compound in Embodiment 14 were weighed by a balance and respectively placed into proper glass bottles, then DMSO, Solutol HS-15 and 0.9% physiological saline (in a ratio of v: v: v = 5%: 10%: 85%) were sequentially added into the glass bottles, and vortexed and stirred, and a drug dissolution condition was continuously concerned in the stirring process until the compounds were completely dissolved/suspended. Finally, drug solutions of the compound in Embodiment 13 and the compound in Embodiment 14 with a concentration of 0.67 mg/mL were prepared for current use.
An animal room was well ventilated, equipped with an air-conditioner, kept at a temperature of 20°C and 25°C and a humidity of 40% to 70%, and in light and dark conditions for 12 hours respectively, and the animals could eat and drink freely. SD rats with good physical signs could be selected for this experiment after being adaptively fed for at least 3 days before administration. Table 23 Source and number of experimental animals
Any operation on the experimental animals in this experiment met the requirements of the "Regulations for the Administration of Affairs Concerning Experimental Animals" issued by the Ministry of Science and Technology of the People's Republic of China. In this experiment, a solvent control group, an administration group of compound in Embodiment 13 and an administration group of compound in Embodiment 14 were set up. Administration dosages of the administration group of compound in Embodiment 13 and the administration group of compound in Embodiment 14 were (10 mg/kg) once a day for 14 consecutive days, while the same amount of blank solvent was given to the blank control group, and administration volumes were all 15 mL/kg. After each administration, symptoms and degrees of toxic reaction of the animals were observed. Recovery observation was carried out for 7 days after the last administration. […]
During the experiment, experimenters and veterinarians should observe physical signs and health conditions of the experimental animals continuously. Any abnormal manifestations of the animals, such as pain, depression and decreased activity should be recorded in original records of the experiment. […]
During the experiment, all animals were observed beside cages at least twice a day, and observed continuously for 2 hours after the drug administration. During the drug administration, if the animals had serious side effects or died, observation results should be recorded in a corresponding form. […]
The animals should be weighed before daily drug administration for 14 consecutive days, and the weights were recorded in a corresponding form. Food intakes of the experimental animals were detected during the experiment. […]

[4] = SD rats, in words, compared with Enarodustat in the table

Compound: O=C(O)CNC(=O)c1c(O)cc(C2CCc3ccccc3C2)n2ncnc12 (single isomer, unassigned) [Compound in Embodiment 13, [(7-hydroxy-5-(1,2,3,4-tetrahydronaphthalene-2-yl)-[1,2,4]triazolo[1,5-a]pyridine-8-carbonyl)amino]acetic acid]
- EC50 [1]: 5.05 µM
- half-lives [2, 4]: obviously longer
- in-vivo exposure [2, 4]: higher
- AUC ([2]; male, Sprague-Dawley, rat, plasma, male SD rats, route and dose not given, read-out: Concentration integral AUC): 19100 ng·h/mL
- half-life ([2]; male, Sprague-Dawley, rat, plasma, male SD rats, route and dose not given, read-out: Half-life period T1/2 (converted)): 2.02 h
- bioavailability ([2]; male, Sprague-Dawley, rat, plasma, oral, male SD rats, intragastric vs intravenous, read-out: Bioavailability F): 29.4%
- toxicities ([3]; compared with Enarodustat): lower than that of Enarodustat
- gastrointestinal findings [3]: no obvious gastrointestinal necrosis, and bleeding spots or flatulence in a black stomach part
